Measurements published in BindingDB's records for doi:10.1038/nchembio.2174 (Oncology Innovative Medicines Unit, 2016).

Target: T1, Induced myeloid leukemia cell differentiation protein Mcl-1 [171-327] (Homo sapiens, UniProt Q07820)
T1 construct: 171-327
Test: TR-FRET Binding A
Conditions: pH 7.4; 24 °C
Method: Compound IC50 values were assessed following a 10-point, half-log10 dilution schema starting at 10 uM compound concentration. The assay was performed in 384-well LV plates (Matrix 4365, Thermo Scientific) and run in the presence and absence of the compound of interest. Each well of 12 uL assay mixture contained 10 mM Tris (pH 7.4), 1 mM DTT, 0.005% Tween-20, 150 mM NaCl, 10% DMSO, 3 nM GST-Mcl-1, 1 nM LanthaScreen Eu-tagged GST antibody (#PV5594, Invitrogen, Life Technologies), and 8 nM fluorescently labeled peptide. Reactions were incubated at 24 °C for 60 min before reading on a Tecan F500 spectrofluorometer with excitation at 340 nm and emission at 620 nm and 665 nm. Subsequently, the ratio of fluorescence emission intensity at 665 nm to 620 nm was calculated for each reaction, and the dose response of the ratio to testing compound concentration was fitted to a select fit model that will provide the best fit quality using automatic parameters to derive IC50 values for each testing compound.

T1 sequence (Q07820 171-327): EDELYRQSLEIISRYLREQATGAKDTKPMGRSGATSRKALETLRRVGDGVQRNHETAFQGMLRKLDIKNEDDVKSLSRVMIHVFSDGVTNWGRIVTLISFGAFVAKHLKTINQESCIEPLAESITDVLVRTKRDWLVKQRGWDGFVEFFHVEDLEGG

Compound | IC50 [nM] | Ki [nM]
CC(=O)c1cc(OCc2nn(C)c(C)c2-c2cccc3c(CCCOc4cccc5ccccc45)c(C(=O)O)[nH]c23)ccc1B(O)O [7-(3-((3-Acetyl-4-boronophenoxy)methyl)-1,5-dimethyl-1H-pyrazol-4-yl)-3-(3-(naphthalen-1-yloxy)propyl)-1H-indole-2-carboxylic acid, 6] | 4.7 | 1.2
Cc1c(-c2cccc3c(CCCOc4cccc5ccccc45)c(C(=O)O)[nH]c23)c(COc2ccccc2)nn1C [Mcl-1 inhibitor 10] | 383 | 104
Cc1c(-c2cccc3c(CCCOc4cccc5ccccc45)c(C(=O)O)[nH]c23)c(COc2cccc(C=O)c2)nn1C [7-(3-((3-formylphenoxy)methyl)-1,5-dimethyl-1H-pyrazol-4-yl)-3-(3-(naphthalen-1-yloxy)propyl)-1H-indole-2-carboxylic acid, 7] | 59.5 | 16
Cc1c(-c2cccc3c(CCCOc4cccc5ccccc45)c(C(=O)O)[nH]c23)c(COc2ccc(B(O)O)c(C=O)c2)nn1C [7-(3-((4-Borono-3-formylphenoxy)methyl)-1,5-dimethyl-1Hpyrazol-4-yl)-3-(3-(naphthalen-1-yloxy)propyl)-1H-indole-2-carboxylic acid, 5] | 3.4 | 0.9
CC(=O)c1cccc(OCc2nn(C)c(C)c2-c2cccc3c(CCCOc4cccc5ccccc45)c(C(=O)O)[nH]c23)c1 [7-(3-((3-Acetylphenoxy)methyl)-1,5-dimethyl-1H-pyrazol-4-yl)-3-(3-(naphthalen-1-yloxy)propyl)-1H-indole-2-carboxylic acid, 8] | 237 | 64
Cc1c(-c2cccc3c(CCCOc4cccc5ccccc45)c(C(=O)O)n(C)c23)c(COc2ccc(B(O)O)c(C=O)c2)nn1C [7-(3-((4-Borono-3-formylphenoxy)methyl)-1,5-dimethyl-1Hpyrazol-4-yl)-1-methyl-3-(3-(naphthalen-1-yloxy)propyl)-1H-indole-2-carboxylic acid, 11] | 4.2 | 1.2
CCc1nn(C)c(CC)c1-c1cccc2c(CCCOc3cccc4ccccc34)c(C(=O)O)n(CCN3CCOCC3)c12 [Mcl-1 inhibitor 12] | 5.96 | 1.6
